Measured values: patent publication US8663616B2, “Enzymatic peracid generation for use in oral care products” (E I du Pont de Nemours and Company, priority 2010, dated 2014)
Ends that are not written are not given here. * marks the point of attachment. Biotin = O=C1N[C@H]2[C@H](CS[C@H]2CCCCC(=O)*)N1

Tests used:
[1] = target: T1, C277T/R296P (SEQ ID NO: 476) (Thermotoga maritima, UniProt Q9WXT2, C277T/R296P); format: biochemical; settings: 100 mM ester, 60 mM H2O2, 40 ppm enzyme, 95 mM phosphate pH 7.2, 37° C.
T1 construct: made in house; host or cells: E. coli
T1 sequence (Q9WXT2 whole entry C277T/R296P): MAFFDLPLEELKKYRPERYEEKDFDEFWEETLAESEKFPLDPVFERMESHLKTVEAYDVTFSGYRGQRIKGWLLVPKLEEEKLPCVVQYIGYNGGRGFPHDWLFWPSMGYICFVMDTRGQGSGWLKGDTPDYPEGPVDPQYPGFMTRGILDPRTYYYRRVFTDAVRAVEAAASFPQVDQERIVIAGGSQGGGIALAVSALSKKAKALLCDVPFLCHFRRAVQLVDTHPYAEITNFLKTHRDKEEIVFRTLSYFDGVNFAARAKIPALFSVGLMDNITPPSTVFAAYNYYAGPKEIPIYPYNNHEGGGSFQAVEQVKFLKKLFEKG
Method: (§1) To test various enzymes against an ester substrate, it was convenient to run up to 4 reactions simultaneously by staggering the beginning of each individual reaction by 0.5-1 min. Each individual reaction was performed in a glass vessel (height: 76 mm; o.d.: 33 mm; i.d.: 24 mm) equipped with a magnetic stirring bar. Four reaction vessels were banded together and kept at constant temperature in a jacketed one-liter, stainless steel, tempering beaker (KGW IsoTherm, # TSS-G 1000W) with circulating water controlled by a Thermo NesLab recirculation bath (Model # RTE-7 Digital One). Buffer (6 mL, 100 mM sodium phosphate buffer, pH 7.2) was added to each reaction vessel and allowed to equilibrate to 37° C. The ester substrate of interest was added to achieve 100 mM concentration. […] To follow the production of peracetic acid, 80 μL samples from each reaction were removed at specific intervals from 1 to 15 minutes. The sample was immediately quenched in a microfuge filter tube (NanoSep 30K VWR cat #82031-354) containing a volume and concentration of phosphoric acid solution that was sufficient to stop the enzymatic reaction (by lowering the pH between 2 and 3) and to dilute the sample for convenient HPLC analyses. The acid-quenched samples were centrifuged for 5 minutes to remove any particulates.

[2] = target: T2, C277T (SEQ ID NO: 437) (Thermotoga maritima, UniProt Q9WXT2, C277T); format: biochemical; settings: 100 mM ester, 60 mM H2O2, 40 ppm enzyme, 95 mM phosphate pH 7.2, 37° C.
T2 construct: made in house; host or cells: E. coli
T2 sequence (Q9WXT2 whole entry C277T): as the sequence (Q9WXT2 whole entry C277T/R296P) above, with P296R counted along it
Method: as §1

[3] = Bleaching of coffee-tea stained bovine enamel with EZ-1 and various ester substrates (Example 15); set-up: Whiteness Index Treatment 0 / Whiteness Index Treatment 1 / Whiteness Index Treatment 2 / Whiteness Index Treatment 3 / ΔWI: scale not given here; settings: for Whiteness Index Treatment 1: after 1 x 30 min treatment; for Whiteness Index Treatment 2: after 2 x 30 min treatments; for Whiteness Index Treatment 3: after 3 x 30 min treatments; for Whiteness Index Treatment 0: before treatment, 40 ppm EZ-1, 100 mM substrate, H2O2 100 mM (TA), 360 mM (PGDA, SOC), 60 mM (GPA), pH 7.2, control 9% H2O2 pH 5.3 without enzyme; for change in whiteness index (in words): enzymatically generated peracetic acid with EZ-1, each successive treatment; for ΔWI: treatment 0 to treatment 3
Method: The optimal conditions used for the generation of peracetic acid with each substrate were derived from the studies in Example 14 and are listed below as follows:
Bovine enamel incisors were prepared as indicated in Example 1. The stained enamel blocks were placed in a 24 well plate with the dentin side facing down and hydrated overnight in phosphate buffer, pH 7.2. Prior to treatment, a color measurement of each tooth was performed using a Konica-Minolta 2600d spectrophotometer and whiteness index was calculated as specified in Example 1.
Each enzyme solution was prepared in a 1.5-mL microfuge tube (Eppendorf, #2243102-1) and 1 mL of the solution was immediately transferred to the 24 well plate containing the pre-hydrated teeth. The control samples consisted of 100 mM phosphate buffer, pH 7.2 and 9% H2O2 in 100 mM citrate/phosphate buffer, pH 5.3. The teeth were incubated at room temperature for 30 minutes, removed, rinsed with 100 mM phosphate, pH 7.2 and a color measurement was taken. The teeth were placed back into the 24 well plate at which time fresh enzyme solutions were prepared and added to each well. This process was repeated for a total of 3 whitening treatments; 30 min per treatment (Table 22).

[4] = target: T3, C277S (SEQ ID NO: 424) (Thermotoga maritima, UniProt Q9WXT2, C277S); format: biochemical; settings: 100 mM ester, 60 mM H2O2, 40 ppm enzyme, 95 mM phosphate pH 7.2, 37° C.
T3 construct: made in house; host or cells: E. coli
T3 sequence (Q9WXT2 whole entry C277S): as the sequence (Q9WXT2 whole entry C277T/R296P) above, with T277S, P296R counted along it
Method: as §1

[5] = target: T4, Wild Type (SEQ ID NO: 16) (Thermotoga maritima, UniProt Q9WXT2); test: Maximum peracetic acid from ester substrates with wild type perhydrolase (Example 14); format: biochemical; settings: 100 mM ester, 60 mM H2O2, 40 ppm enzyme, 95 mM phosphate pH 7.2, 37° C.
T4 construct: made in house; host or cells: E. coli
T4 sequence (Q9WXT2 1-325): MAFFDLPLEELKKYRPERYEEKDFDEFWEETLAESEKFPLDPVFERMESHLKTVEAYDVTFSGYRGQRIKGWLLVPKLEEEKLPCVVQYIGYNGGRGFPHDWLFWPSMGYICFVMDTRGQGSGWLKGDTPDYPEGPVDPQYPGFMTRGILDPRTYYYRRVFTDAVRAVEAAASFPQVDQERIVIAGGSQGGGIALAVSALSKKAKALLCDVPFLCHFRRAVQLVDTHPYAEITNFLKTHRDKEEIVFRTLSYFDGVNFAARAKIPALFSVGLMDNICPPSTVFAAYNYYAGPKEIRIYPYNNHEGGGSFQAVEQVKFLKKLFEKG
Method: as §1

[6] = 20 μM biotin-labelled peptide, 30 min 37° C.; streptavidin-HRP, QuantaBlu; three replicate enamel substrates; no peptide 494.2
Method: A total of 11 synthetic peptides were manufactured using sequences obtained from Table 3. Peptides were obtained from SynBioSci Corp. (Livermore, Calif.) with biotin labeled lysine at the C-terminus.
Enamel substrates were prepared as described in Example 2. Each substrate was incubated for 1 h at room temperature (˜22° C.) with 1 mL of blocking buffer, consisting of 1 mg/mL BSA in PBST (Pierce BUPH™ #28372 with 0.1% TWEEN® 20). The blocking buffer was removed by aspirating the liquid out of each well. The tube was rinsed 2 times with wash buffer consisting of PBST. The wells were filled with 500 μL of 20 μM peptide solution which was prepared by diluting in blocking buffer. The samples were incubated for 30 min with slow shaking at 37° C. The non-binding peptide was removed by washing 6 times with PBST. Then, 500 μL of horseradish peroxidase/streptavidin conjugate (Pierce #22127), diluted 1:1000 in PBST, was added and incubated for 1 h at room temperature (˜22° C.). The conjugate solution was removed and the enamel blocks were washed 4 times with PEST.
Each enamel substrate was removed from the well and washed again in a 15-mL test tube with 10 mL of PBST. Each enamel substrate was then mounted in a clean well plate with only the enamel surface exposed. 200 μL of a QUANTABLU™ Substrate Solution (Thermo-Fisher, Rockford, Ill.; #1856187) was added directly to each enamel block. The solution was incubated for 20 min at room temperature. 200 μL of QUANTABLU™ Stop Solution (Thermo Fisher) was added. After mixing, 200 μL of solution was transferred to a clean 96-well black microcentrifuge plate. The fluorescence of the plate was measured with 325 nm excitation and 420 nm emission with no cutoff wavelength using a microplate spectrophotometer (Molecular Devices, Sunnyvale, Calif.). The analysis of the 11 pellicle/enamel binding candidates was compared to a known binding peptide, DenP03. Each sequence was tested with three replicate enamel substrates.

Compound | Maximum Peracetic Acid (PAA) (ppm), C277T/R296P (SEQ ID NO: 476) [1] | Maximum Peracetic Acid (PAA) (ppm), C277T (SEQ ID NO: 437) [2] | Maximum Peracetic Acid (PAA) (ppm), C277S (SEQ ID NO: 424) [4] | Maximum Peracetic Acid (PAA) (ppm), Wild Type (SEQ ID NO: 16) [5] | Avg Fluorescence 325/420 [6] | also measured
CC(=O)OC[C@H]1O[C@H](OC(C)=O)[C@H](OC(C)=O)[C@@H](OC(C)=O)[C@@H]1OC(C)=O [α-D-glucose pentaacetate] | 1678 ppm | 2542 ppm | 2091 ppm | 1188 ppm | – | Whiteness Index Treatment 1 [3]: −128.7; Whiteness Index Treatment 2 [3]: −105.3; Whiteness Index Treatment 3 [3]: −95.9; Whiteness Index Treatment 0 [3]: −225.2; change in whiteness index (in words) [3]: significant change in whiteness index; ΔWI [3]: 129.3
CC(=O)OCC(C)OC(C)=O (stereo not drawn) [Propylene glycol diacetate] | 1202 ppm | 1245 ppm | 1128 ppm | 780 ppm | – | Whiteness Index Treatment 1 [3]: −108.0; Whiteness Index Treatment 2 [3]: −80.9; Whiteness Index Treatment 3 [3]: −80.1; Whiteness Index Treatment 0 [3]: −181.4; change in whiteness index (in words) [3]: significant change in whiteness index; ΔWI [3]: 101.3
HDPYTMKSALRQSTSK(Biotin) [DenP303] | – | – | – | – | 948.6 | –
GMGSEVLSQYPQAPVGK(Biotin) [DenP312] | – | – | – | – | 2301.0 | –
SNPIPNFAHDLRHSKYNSK (Biotin) [DenP307] | – | – | – | – | 861.6 | –
ATPSQHRYGLMQNHAPNGIEK(Biotin) [DenP311] | – | – | – | – | 795.3 | –
TKPPRTPTANTSRPHHNFK(Biotin) [DenP308] | – | – | – | – | 12302.6 | –
ANSGFPIWLQKYPWSEVQQEK (Biotin) [DenP309] | – | – | – | – | 1729.5 | –
CC(=O)OC[C@H]1O[C@@](COC(C)=O)(O[C@H]2O[C@H](COC(C)=O)[C@@H](OC(C)=O)[C@H](OC(C)=O)[C@H]2OC(C)=O)[C@@H](OC(C)=O)[C@@H]1OC(C)=O [Sucrose octaacetate] | 501 ppm | 493 ppm | 215 ppm | 304 ppm | – | Whiteness Index Treatment 1 [3]: −135.2; Whiteness Index Treatment 2 [3]: −135.9; Whiteness Index Treatment 3 [3]: −128.8; Whiteness Index Treatment 0 [3]: −172.8; change in whiteness index (in words) [3]: significant change in whiteness index; ΔWI [3]: 44.0
TTYHYKNIYQESYQQRNPAVK (Biotin) [DenP03, reference compound] | – | – | – | – | 3448.3 | –
SNATMYNIQSHSHHQK (Biotin) [DenP301] | – | – | – | – | 1098.4 | –
DTIHPNKMKSPSSPLK (Biotin) [DenP305] | – | – | – | – | 581.2 | –
QAAQVHMMQHSRPTTK (Biotin) [DenP302] | – | – | – | – | 608.6 | –
CC(=O)OCC(COC(C)=O)OC(C)=O [Triacetin] | 2291 ppm | 2311 ppm | 1977 ppm | 937 ppm | – | Whiteness Index Treatment 1 [3]: −108.7; Whiteness Index Treatment 2 [3]: −86.7; Whiteness Index Treatment 3 [3]: −86.1; Whiteness Index Treatment 0 [3]: −189.9; change in whiteness index (in words) [3]: significant change in whiteness index; ΔWI [3]: 103.8
DLGTFPNRTLKMAAHK(Biotin) [DenP304] | – | – | – | – | 642.8 | –
CC(=O)OCCOCCOC(C)=O [Diethylene glycol diacetate] | 530 ppm | 653 ppm | 469 ppm | 424 ppm | – | –
CC(=O)OC[C@H]1O[C@H](OC(C)=O)[C@@H](OC(C)=O)[C@@H](OC(C)=O)[C@@H]1OC(C)=O [α-D-mannopyranose pentaacetate] | 3752 ppm | 4212 ppm | 4017 ppm | 4023 ppm | – | –
CC(=O)OC[C@H]1O[C@@H](OC(C)=O)[C@H](OC(C)=O)[C@@H](OC(C)=O)[C@@H]1OC(C)=O [β-D-glucose pentaacetate] | 1716 ppm | 2531 ppm | 2178 ppm | 1158 ppm | – | –
CC(=O)OC[C@H]1OC(OC(C)=O)[C@H](OC(C)=O)[C@@H]1OC(C)=O (stereo partly drawn) [1,2,3,5-tetra-O-acetyl-ribofuranose] | 3270 ppm | 3472 ppm | 3397 ppm | 2828 ppm | – | –
CC(=O)OC[C@H](OC(C)=O)[C@@H](OC(C)=O)[C@H](OC(C)=O)[C@@H](COC(C)=O)OC(C)=O [Sorbitol hexaacetate] | 616 ppm | 705 ppm | 712 ppm | 381 ppm | – | –
GSNNHLPSTVPRLTVK(Biotin) [DenP306] | – | – | – | – | 1300.0 | –
